Laboratory results from ChEMBL document CHEMBL1201862, “PubChem BioAssay data set” (2004).
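Growth conditions: 96-well plates. Treatment: test compound, 48 hours, 5 concentrations. Analysis: linear interpolation between bracketing concentrations; unreached endpoints set to highest concentration. Abbreviation: GI50, concentration required for 50% inhibition of growth.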 Calls of active or inactive are those of the source. Rule as the data show it: active = GI50 up to about 1.1 µM and inactive = higher.

What was measured:
Assay in all cases: DTP human tumour cell line panel, 48 h
HOP-18 = test system: HOP-18
DLD-1 = test system: DLD-1
KM-20L2 = test system: KM-20L2
SNB-78 = test system: SNB-78
RXF 631 = test system: RXF 631
MDA-MB-435 = test system: MDA-MB-435
MDA-MB-231 = test system: MDA-MB-231
DU-145 = test system: DU-145
MDA-N = test system: MDA-N

Measured: GI50

N/C(=N\O)N/N=C/c1ccc2c(c1)OCCO2
inactive: HOP-18 24.2 µM | DLD-1 19.7 µM | KM-20L2 4.13 µM | SNB-78 57.7 µM

Cc1cccc(NC(=O)C(=O)C(C(=O)c2ccccc2F)C2OC(=O)c3ccccc32)c1Cl (centres undefined)
inactive: DLD-1 27.9 µM | KM-20L2 29.6 µM | SNB-78 32.6 µM

O=C1Cc2ccccc2N1c1c(Cl)cccc1Cl
inactive: HOP-18 > 100 µM | DLD-1 47.9 µM | RXF 631 > 100 µM | KM-20L2 30.2 µM | SNB-78 74.5 µM

COCOc1ccc(OC)cc1
inactive: HOP-18 > 100 µM | DLD-1 > 100 µM | KM-20L2 > 100 µM | SNB-78 > 100 µM

CC1(c2ccc(F)cc2)C(C#N)C(=O)NC(=O)C1C#N (centres undefined)
inactive: DLD-1 > 100 µM | RXF 631 > 100 µM | KM-20L2 > 100 µM

CC(C)(C)c1cc(Cc2ccc(S(C)(=O)=O)cc2)c(O)c(C(C)(C)C)c1
inactive: HOP-18 22.7 µM | DLD-1 17.5 µM | KM-20L2 15.7 µM | SNB-78 16.3 µM

CC(C)COC(=O)N1N=NC2C3CC(=O)C(O3)C21 (centres undefined)
inactive: HOP-18 > 100 µM | DLD-1 > 100 µM | RXF 631 > 100 µM | KM-20L2 > 100 µM | SNB-78 > 100 µM

S=P1(Oc2ccccc2)NNP2(=NP(N3CC3)(N3CC3)=NP(N3CC3)(N3CC3)=N2)NN1 (centres undefined)
inactive: HOP-18 > 100 µM | DLD-1 > 100 µM | RXF 631 > 100 µM

CC(=O)Nc1ccc(C(=O)N2N=C(C)/C(=C/c3cccc(O)c3)C2=O)cc1
inactive: DLD-1 > 100 µM

c1ccc(C2N=C(c3ccccn3)C(c3ccccn3)=NC2c2ccccc2)cc1 (centres undefined)
inactive: HOP-18 84.7 µM | DLD-1 > 100 µM | KM-20L2 > 100 µM | SNB-78 > 100 µM

CCOC(=O)C(C(=O)OCC)c1ccc([N+](=O)[O-])o1
inactive: HOP-18 20 µM | DLD-1 4.58 µM | KM-20L2 19.1 µM | SNB-78 14 µM

c1ccc(N2CCN(CCCN3CCc4c([nH]c5ccccc45)C3c3cccnc3)CC2)cc1 (centres undefined)
inactive: HOP-18 > 100 µM | DLD-1 72.8 µM | RXF 631 > 55.7 µM | KM-20L2 39.4 µM | SNB-78 > 100 µM

O=c1n(Cc2ccccc2)c2ccccc2n1CC1CS1 (centres undefined)
inactive: KM-20L2 > 100 µM

CO/C(=N\N=C\c1ccc(Cl)cc1)c1ccncc1
inactive: DLD-1 > 100 µM | KM-20L2 > 100 µM | SNB-78 > 100 µM

O=C1c2ccccc2-c2cccc3ccc(Cc4ccc5ccccc5c4)c1c23
inactive: DLD-1 > 100 µM | RXF 631 > 100 µM | KM-20L2 > 100 µM | SNB-78 > 100 µM

CC(=O)OCc1nnn2c1C(OC(C)=O)CC2 (centres undefined)
inactive: DLD-1 > 100 µM | RXF 631 > 100 µM | KM-20L2 > 100 µM | SNB-78 > 100 µM

C#CCOCn1cnc2ncnc(Cl)c21
inactive: HOP-18 > 100 µM | DLD-1 > 100 µM | RXF 631 > 100 µM | KM-20L2 > 100 µM | SNB-78 > 100 µM

CC(C)(C1=NC(C(C)(C)C)CO1)C1=N[C@@H](C(C)(C)C)CO1 (some centres undefined)
inactive: HOP-18 > 100 µM | DLD-1 > 100 µM | KM-20L2 > 100 µM

O=C1NCCCC12CCCNC2=O
inactive: KM-20L2 > 100 µM

CCOC(=O)c1cc(Cl)ccc1OC(N)=O
inactive: HOP-18 > 96.4 µM | DLD-1 > 100 µM | KM-20L2 > 100 µM | SNB-78 > 100 µM

CC/C=C\C/C=C\C/C=C\CCCCCCCC(=O)OCC
inactive: HOP-18 > 100 µM | DLD-1 > 100 µM | KM-20L2 > 100 µM

Cc1ccc2c(c1-c1ccccc1)C(=O)OC2
inactive: HOP-18 > 100 µM | DLD-1 > 100 µM | RXF 631 > 100 µM | KM-20L2 20.4 µM | SNB-78 37 µM

CC1CCN(c2cc(-c3cc4ccccc4o3)oc(=O)c2C#N)CC1
inactive: HOP-18 > 100 µM | DLD-1 > 100 µM | KM-20L2 > 100 µM | SNB-78 > 10 µM

CCOc1cccc2[s+]snc12
inactive: HOP-18 77.8 µM | DLD-1 43.9 µM | RXF 631 > 100 µM | KM-20L2 > 100 µM | SNB-78 49.3 µM

C/C(=N\NC(=S)Nc1ccc(C(=O)O)cc1)c1ccccn1
inactive: HOP-18 24.7 µM | DLD-1 27.7 µM | KM-20L2 25.8 µM | SNB-78 > 100 µM

CN1C=C(C(N)=O)Cc2ccsc21
inactive: HOP-18 > 100 µM | DLD-1 > 100 µM | KM-20L2 > 100 µM | SNB-78 > 100 µM

N/N=c1\c2ccccc2c2ccc3c4ccccc4/c(=N\N)c3c12
inactive: HOP-18 > 100 µM | DLD-1 > 100 µM | KM-20L2 > 100 µM | SNB-78 > 100 µM

COc1ccc(C2C(Cl)C(=O)N2NC(=O)c2ccc(NC(C)=O)cc2)cc1OC (centres undefined)
inactive: HOP-18 > 100 µM

N/C(=N/O)N/N=C\c1cc(Cl)cc(Cl)c1O
inactive: HOP-18 10.7 µM | DLD-1 7.48 µM | KM-20L2 5.57 µM | SNB-78 21.1 µM

CCc1cccc(CC)c1NC1=CC(=O)C(=O)c2ccccc21
inactive: HOP-18 21.2 µM | DLD-1 15.6 µM | RXF 631 13.8 µM | KM-20L2 19.8 µM | SNB-78 26.3 µM

COC(=O)CCC(=O)CC(=O)C1=NS(=O)(=O)c2nc(S(N)(=O)=O)c(Cl)cc2N1
inactive: HOP-18 > 100 µM | DLD-1 > 100 µM | RXF 631 > 100 µM | KM-20L2 72.9 µM

CCC1N2CCCCC2[C@@H]2c3[nH]c4ccccc4c3CCN12 (some centres undefined)
inactive: HOP-18 > 100 µM | DLD-1 > 100 µM | RXF 631 > 100 µM | KM-20L2 > 100 µM | SNB-78 > 100 µM

CN1C(=O)C2(C)SC1(c1ccccc1)C1C(=O)N(c3ccccc3)C(=O)C12 (centres undefined)
inactive: MDA-MB-435 76 µM | MDA-MB-231 > 100 µM | DU-145 > 100 µM | MDA-N > 100 µM

CN1CCC2(CC1)SC[C@H]1C(=O)N(c3ccc(Cl)cc3)C(=O)N12
inactive: MDA-MB-435 43.7 µM | MDA-MB-231 > 100 µM | DU-145 > 100 µM | MDA-N > 100 µM

COc1cc2c3cc1Oc1c(O)c(OC)cc4c1C(Cc1ccc(O)c(c1)Oc1ccc(cc1)CC3N(C)CC2)N(C)CC4 (centres undefined)
inactive: HOP-18 27.9 µM | KM-20L2 5.56 µM | SNB-78 24.9 µM

O=[N+]([O-])c1cc(C(F)(F)F)cc2c1SC1=Nc3ccccc3CN12
inactive: HOP-18 > 100 µM | DLD-1 > 100 µM | KM-20L2 > 100 µM | SNB-78 > 100 µM

COc1ccc(NC(=O)C(=O)Cc2ccc([N+](=O)[O-])c([N+](=O)[O-])c2CC(=O)C(=O)Nc2ccc(OC)cc2OC)c(OC)c1
inactive: HOP-18 > 100 µM | DLD-1 > 100 µM | RXF 631 > 100 µM | KM-20L2 > 100 µM | SNB-78 > 100 µM

COc1cc2c(cc1OC)C1=C(C=O)c3ccc(OC)c(OC)c3C(O)N1CC2 (centres undefined)
inactive: MDA-MB-435 32.2 µM | MDA-MB-231 16.3 µM | DU-145 28.1 µM | MDA-N 31.5 µM

O/N=C/c1ncccc1C1OCCO1
inactive: HOP-18 > 100 µM | DLD-1 > 100 µM | KM-20L2 > 100 µM | SNB-78 > 100 µM

CN(C)CC1CN=C(N)O1 (centres undefined)
inactive: MDA-MB-435 > 100 µM | MDA-MB-231 > 100 µM | DU-145 > 100 µM | MDA-N > 100 µM

Cc1ccc(N2C(=O)N(c3ccc(C)cc3)C3(SC=NN3C)C2=O)cc1 (centres undefined)
inactive: HOP-18 > 100 µM | DLD-1 67.6 µM | KM-20L2 44 µM | SNB-78 > 100 µM
